Laboratory results taken from patent publication US5332811A, “Etopside analogs” (priority 1991, dated 1994).

What was measured:
KB cells = assay: Cytotoxicity: 50% reduction in cell number of KB cells after three day incubation; assay type: cell-based; settings: Homo sapiens, 72 h; Table 1; KB cells; three day incubation; read-out: Cytotoxicity ID50 KB
Procedure: (§1) The compounds of the present invention were tested for their degree of inhibitory activity on human type II DNA topoisomerase, their effect on the formation of protein-linked DNA breakage, and their cytotoxicity. The inhibitory activity for compounds of the present invention correlated with the ability of the compounds to cause DNA strand breakage. […] For a description of the assays used with respect to the compounds listed in Tables 1 to 5 see Thurston, L.S., Irie, H., Tani, S., Han, F. S., Liu, Z. C., Cheng, Y.C., and Lee, K. H., Antitumor Agents 78. Inhibition of Human DNA Topoisomerase II by Podophyllotoxin and Peltatin Analogues, J. Med. Chem. 29, 1547 (1986), and the references cited therein, herein incorporated by reference.
in cell number after three day incubation.

[1] = test system: several human neoplasms, including small cell carcinomas of the lung, testicular carcinomas, Hodgkin's disease, leukemia, lymphoma and Kaposi's Sarcoma; settings: background; cited from earlier work
[2] = clinical level; background; cited from earlier work
[3] = clinical level; background; cited from earlier work; remark: listed apart in the source
[4] = test system: Human DNA topoisomerase II; settings: at higher concentrations; Thurston et al. 1986; cited from earlier work
[5] = target: Human DNA topoisomerase II; assay: DNA topoisomerase II assay (P4 unknotting reaction); assay type: biochemical
Procedure: as §1, with “cytotoxicity.” for “cytotoxicity. The inhibitory activity for compounds of the present invention correlated with the ability of the compounds to cause DNA strand breakage.”
Human DNA topoisomerase II was isolated from peripheral blast cells of a patient with acute leukemia. The isolation procedure is described in Thurston, L., Imakura, Y., Haruna, M., Li, Z. C., Liu, S. Y., and Lee, K. H., J. Med. Chem., 31, […] (1988) and is a partial combination of the procedure described in Goto, T., Laiapia, P. and Wang, J., J. Biol. Chem., 259, 10422 (1984) and Halligan, B., Edwards, K., and Liu, L., J. Biol. Chem., 260, 2475 (1985) which are herein specifically incorporated by reference.
(§2) Drugs were dissolved in Me2 SO at a concentration of 20 mM as the stock solution and diluted before use with water to the desired concentration of each drug.
The P4 unknotting reaction was a modification of the procedure described by Hseih, T., J. Biol. Chem., 258, 8413 (1985), which is herein specifically incorporated by reference.
The reaction mixture (20 μL), which contained 50 mM HEPES, pH 7.0, 50 mM KCI, 100 mM NaCl, 0.1 mM EDTA, 10 mM MgCl2, 1.0 mM ATP, 50 μg/mL bovine serum albumin, 0.4 μg P4knotted DNA, and enzyme, was incubated with or without drugs.
The reaction mixture was incubated at 37° C. for 30 min and terminated by adding 5.0 μl of a stop solution (2% sodium dodecyl sulfate, 20% glycerol, 0.05% bromophenol blue). These samples were loaded onto a 1% agarose gel and electrophoresed at 55 V overnight with an electrophoresis buffer that contained 90 mM Tris-boric acid, pH 8.3, and 2.5 mM EDTA. At completion, the gel was stained in 0.5 μg/mL of ethidium bromide. Then a photograph was taken of the DNA bands visualized with fluorescence induced by a long-wavelength UV lamp. […]

[6] = test system: covalent topoisomerase II-DNA complexes; assay: K-SDS precipitation assay for protein-DNA complexes in KB ATCC cells (cellular protein-DNA complex formation); assay type: cell-based; settings: compared with etoposide
Procedure: as §1, §2
The intracellular formation of covalent topoisomerase II-DNA complexes was quantitated using the potassium SDS precipitation assay, a procedure adapted from the method described in Rowe, T. C., Chen, G. L., Hsiang, Y. H., and Liu, L., Cancer Res., 46, 2021 (1986) (hereinafter Rowe et al.), which is herein specifically incorporated by reference. KB ATCC cells were prelabeled with 0.05 mCi/ml ^14 C-thymidine (specific activity 50.5 mCi/mmol) for 18 hr. A final concentration of 5×10^5 cells/sample were treated with 10 μM of the drugs at 37° C. for 1 hr and proceeded according to the procedure described by Rowe et al. to detect the protein linked DNA levels.

| Structure (SMILES) | IC50 (KB cells) [nM] | therapeutic activity in several human neoplasms [1] | myelosuppression [2] | oral bioavailability [3] | inhibitory activity of DNA topoisomerase II [4] | IC50 ([5]; Table 1, based on degree of inhibition at 25, 50, and 100 μM, read-out: Inhibition of DNA Topoisomerase II Activity ID50) [nM] | inhibition of DNA topoisomerase activity relative to etoposide ([5]; compared with etoposide) | inhibition of cellular protein-DNA complex formation relative to etoposide [6] |
| --- | --- | --- | --- | --- | --- | --- | --- | --- |
| COc1cc([C@@H]2c3cc4c(cc3[C@@H](O[C@@H]3O[C@@H]5CO[C@@H](C)O[C@H]5[C@H](O)[C@H]3O)[C@H]3COC(=O)[C@H]23)OCO4)cc(OC)c1O [etoposide] | 200 | exhibits therapeutic activity in several human neoplasms | myelosuppression | poor oral bioavailability | – | – | – | – |
| CCOC1c2cc3c(cc2C(c2cc(OC)c(O)c(OC)c2)C2C(=O)OCC12)OCO3 (stereo not drawn) [4'-demethyl-epipodophyllotoxin ethyl ether] | – | – | – | – | preserves the inhibitory activity of DNA topoisomerase II intact at higher concentrations | – | – | – |
| COc1cc(C2c3cc4c(cc3C(NCc3cccc(C#N)c3)C3COC(=O)C23)OCO4)cc(OC)c1O (stereo not drawn) [Example 10, 4'-O-Demethyl-4β-(3"-cyanobenzylamino)-4-desoxypodophyllotoxin] | < 400 | – | – | – | – | 25000 | over twice | over twice |
